From ChEMBL document CHEMBL3632469, “Discovery of dihydroquinazolinone derivatives as potent, selective, and CNS-penetrant M(1) and M(4) muscarinic acetylcholine receptors agonists” (Bioorg Med Chem Lett, 2015)

How the values were obtained:
[1] = target: T1, Muscarinic acetylcholine receptor M1 (Homo sapiens) (UniProt P11229); assay: Agonist activity at human muscarinic M1 acetylcholine receptor expressed in CHO cells assessed as calcium mobilization at 0.3 uM by FLIPR assay; format: functional, cell-based
T1 sequence (whole entry): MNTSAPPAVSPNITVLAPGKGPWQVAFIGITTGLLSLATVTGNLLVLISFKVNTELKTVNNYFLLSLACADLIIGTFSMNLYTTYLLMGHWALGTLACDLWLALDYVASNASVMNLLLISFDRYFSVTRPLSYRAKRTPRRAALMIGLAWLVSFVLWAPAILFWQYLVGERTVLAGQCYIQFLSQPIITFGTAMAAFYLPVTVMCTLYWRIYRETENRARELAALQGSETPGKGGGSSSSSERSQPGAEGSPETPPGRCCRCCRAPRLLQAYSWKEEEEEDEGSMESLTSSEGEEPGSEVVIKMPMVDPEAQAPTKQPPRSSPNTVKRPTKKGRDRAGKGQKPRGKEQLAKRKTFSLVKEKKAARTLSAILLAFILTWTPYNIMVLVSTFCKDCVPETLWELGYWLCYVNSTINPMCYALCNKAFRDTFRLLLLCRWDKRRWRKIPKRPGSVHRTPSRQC

[2] = Permeability of the compound at pH 7.4 by PAMPA method; format: physicochemical; details: read-out: permeability
[3] = target: Cytochrome P450 2D6 (Homo sapiens, UniProt P10635); assay: Inhibition of CYP2D6 (unknown origin); format: ADME
[4] = Ratio of drug level in brain to blood in rat; format: ADME, tissue-based
[5] = target: Alpha-1A adrenergic receptor (Homo sapiens) (UniProt P35348); assay: Binding affinity to adrenergic alpha1A receptor (unknown origin) at 3 uM by radioligand-binding assay
[6] = target: Adrenergic receptor alpha-1 (Homo sapiens) (UniProt P35348+P25100+P35368); assay: Agonist activity at adrenergic a1 receptor (unknown origin) expressed in CHO cells assessed as calcium mobilization at 3 uM; format: functional, cell-based
[7] = target: Alpha-2B adrenergic receptor (Homo sapiens) (UniProt P18089); assay: Agonist activity at adrenergic a2B receptor (unknown origin) expressed in CHO cells assessed as calcium mobilization at 3 uM; format: functional, cell-based
[8] = target: D(2) dopamine receptor (Homo sapiens) (UniProt P14416); assay: Agonist activity at dopamine D2S receptor (unknown origin) expressed in CHO cells assessed as calcium mobilization at 3 uM; format: functional, cell-based
[9] = target: D(3) dopamine receptor (Homo sapiens) (UniProt P35462); assay: Agonist activity at dopamine D3L receptor (unknown origin) expressed in CHO cells assessed as calcium mobilization at 3 uM; format: functional, cell-based
[10] = target: Endothelin-1 receptor (Homo sapiens) (UniProt P25101); assay: Agonist activity at endothelin a receptor (unknown origin) expressed in CHO cells assessed as calcium mobilization at 3 uM; format: functional, cell-based
[11] = tested on: CHO; assay: Agonist activity at GaBaB receptor (unknown origin) expressed in CHO cells assessed as calcium mobilization at 3 uM; format: cell-based; details: Homo sapiens
[12] = target: Kappa-type opioid receptor (Homo sapiens) (UniProt P41145); assay: Agonist activity at ppiate kappa receptor (unknown origin) expressed in CHO cells assessed as calcium mobilization at 3 uM; format: functional, cell-based
[13] = target: 5-hydroxytryptamine receptor 1A (Homo sapiens) (UniProt P08908); assay: Agonist activity at 5-HT1a receptor (unknown origin) expressed in CHO cells assessed as calcium mobilization at 3 uM; format: functional, cell-based
[14] = target: 5-hydroxytryptamine receptor 1B (Homo sapiens) (UniProt P28222); assay: Agonist activity at 5-HT1B receptor (unknown origin) expressed in CHO cells assessed as calcium mobilization at 3 uM; format: functional, cell-based
[15] = target: P2Y purinoceptor 1 (Homo sapiens) (UniProt P47900); assay: Agonist activity at P2Y1 receptor (unknown origin) expressed in CHO cells assessed as calcium mobilization at 3 uM; format: functional, cell-based
[16] = target: Adenosine receptor A2a (Homo sapiens) (UniProt P29274); assay: Antagonist activity at adenosine a2a receptor (unknown origin) expressed in CHO cells assessed as calcium mobilization at 3 uM; format: functional, cell-based
[17] = target: Alpha-2C adrenergic receptor (Homo sapiens) (UniProt P18825); assay: Antagonist activity at adrenergic a2C receptor (unknown origin) expressed in CHO cells assessed as calcium mobilization at 3 uM; format: functional, cell-based
[18] = target: Beta-1 adrenergic receptor (Homo sapiens) (UniProt P08588); assay: Antagonist activity at adrenergic beta1 receptor (unknown origin) expressed in CHO cells assessed as calcium mobilization at 3 uM; format: functional, cell-based
[19] = target: D(4) dopamine receptor (Homo sapiens) (UniProt P21917); assay: Antagonist activity at dopamine D4 receptor (unknown origin) expressed in CHO cells assessed as calcium mobilization at 3 uM; format: functional, cell-based
[20] = tested on: CHO; assay: Antagonist activity at GaBaB receptor (unknown origin) expressed in CHO cells assessed as calcium mobilization at 3 uM; format: cell-based; details: Homo sapiens
[21] = target: Histamine H1 receptor (Homo sapiens) (UniProt P35367); assay: Antagonist activity at histamine H1 receptor (unknown origin) expressed in CHO cells assessed as calcium mobilization at 3 uM; format: functional, cell-based
[22] = target: Histamine H2 receptor (Homo sapiens) (UniProt P25021); assay: Antagonist activity at histamine H2 receptor (unknown origin) expressed in CHO cells assessed as calcium mobilization at 3 uM; format: functional, cell-based
[23] = target: Cysteinyl leukotriene receptor 1 (Homo sapiens) (UniProt Q9Y271); assay: Antagonist activity at CysLT1 receptor (unknown origin) expressed in CHO cells assessed as calcium mobilization at 3 uM; format: functional, cell-based
[24] = target: Neuropeptide Y receptor type 2 (Homo sapiens) (UniProt P49146); assay: Antagonist activity at NPY2 receptor (unknown origin) expressed in CHO cells assessed as calcium mobilization at 3 uM; format: functional, cell-based
[25] = target: Delta-type opioid receptor (Homo sapiens) (UniProt P41143); assay: Antagonist activity at opiate delta1 receptor (unknown origin) expressed in CHO cells assessed as calcium mobilization at 3 uM; format: functional, cell-based
[26] = target: 5-hydroxytryptamine receptor 7 (Homo sapiens) (UniProt P34969); assay: Antagonist activity at 5-HT7B receptor (unknown origin) expressed in CHO cells assessed as calcium mobilization at 3 uM; format: functional, cell-based

Chain of Endothelin-1 receptor (Homo sapiens) (P25101 whole entry): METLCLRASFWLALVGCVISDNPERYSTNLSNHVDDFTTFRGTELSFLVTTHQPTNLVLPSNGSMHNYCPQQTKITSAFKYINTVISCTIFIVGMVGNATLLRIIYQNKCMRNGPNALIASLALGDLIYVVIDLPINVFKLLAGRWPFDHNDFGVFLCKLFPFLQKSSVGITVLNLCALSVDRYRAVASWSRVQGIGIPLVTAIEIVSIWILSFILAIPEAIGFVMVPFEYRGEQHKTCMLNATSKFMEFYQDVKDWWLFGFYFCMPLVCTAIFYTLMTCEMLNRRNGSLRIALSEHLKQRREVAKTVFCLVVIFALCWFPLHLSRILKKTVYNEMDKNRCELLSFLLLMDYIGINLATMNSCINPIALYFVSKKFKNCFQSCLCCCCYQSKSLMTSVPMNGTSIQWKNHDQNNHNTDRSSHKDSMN
Chain of D(3) dopamine receptor (Homo sapiens) (P35462 whole entry): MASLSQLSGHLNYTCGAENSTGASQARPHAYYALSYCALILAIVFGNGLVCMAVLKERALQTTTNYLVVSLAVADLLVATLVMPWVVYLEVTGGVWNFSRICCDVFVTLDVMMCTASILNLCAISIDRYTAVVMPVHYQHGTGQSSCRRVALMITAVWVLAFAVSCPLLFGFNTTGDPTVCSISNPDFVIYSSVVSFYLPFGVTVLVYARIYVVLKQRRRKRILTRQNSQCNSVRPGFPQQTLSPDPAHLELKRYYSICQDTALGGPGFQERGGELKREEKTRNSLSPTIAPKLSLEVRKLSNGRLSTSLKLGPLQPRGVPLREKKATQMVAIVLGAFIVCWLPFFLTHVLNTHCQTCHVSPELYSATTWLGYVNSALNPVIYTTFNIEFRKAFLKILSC
Chain of Neuropeptide Y receptor type 2 (Homo sapiens) (P49146 whole entry): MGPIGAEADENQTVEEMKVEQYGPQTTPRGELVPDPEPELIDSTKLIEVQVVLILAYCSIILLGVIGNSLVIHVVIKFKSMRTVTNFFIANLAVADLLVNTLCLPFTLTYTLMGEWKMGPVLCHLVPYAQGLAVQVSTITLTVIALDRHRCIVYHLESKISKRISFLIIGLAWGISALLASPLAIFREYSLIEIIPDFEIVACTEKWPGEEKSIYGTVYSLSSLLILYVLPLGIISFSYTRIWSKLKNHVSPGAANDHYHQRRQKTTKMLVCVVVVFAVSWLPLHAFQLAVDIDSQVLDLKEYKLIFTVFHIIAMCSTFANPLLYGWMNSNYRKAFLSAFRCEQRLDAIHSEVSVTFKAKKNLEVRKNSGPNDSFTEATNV
Chain of D(2) dopamine receptor (Homo sapiens) (P14416 whole entry): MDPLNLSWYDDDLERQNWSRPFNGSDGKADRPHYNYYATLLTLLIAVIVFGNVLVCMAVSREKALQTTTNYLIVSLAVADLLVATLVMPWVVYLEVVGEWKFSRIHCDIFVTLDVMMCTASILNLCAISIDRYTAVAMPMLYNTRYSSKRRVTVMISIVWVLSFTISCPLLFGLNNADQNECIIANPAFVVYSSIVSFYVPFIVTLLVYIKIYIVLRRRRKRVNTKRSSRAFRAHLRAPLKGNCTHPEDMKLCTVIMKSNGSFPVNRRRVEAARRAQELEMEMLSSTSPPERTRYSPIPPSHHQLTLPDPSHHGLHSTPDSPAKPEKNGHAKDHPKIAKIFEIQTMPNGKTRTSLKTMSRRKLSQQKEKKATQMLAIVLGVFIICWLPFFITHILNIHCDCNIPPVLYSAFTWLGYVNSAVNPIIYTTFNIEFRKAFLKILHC
Chain of Cysteinyl leukotriene receptor 1 (Homo sapiens) (Q9Y271 whole entry): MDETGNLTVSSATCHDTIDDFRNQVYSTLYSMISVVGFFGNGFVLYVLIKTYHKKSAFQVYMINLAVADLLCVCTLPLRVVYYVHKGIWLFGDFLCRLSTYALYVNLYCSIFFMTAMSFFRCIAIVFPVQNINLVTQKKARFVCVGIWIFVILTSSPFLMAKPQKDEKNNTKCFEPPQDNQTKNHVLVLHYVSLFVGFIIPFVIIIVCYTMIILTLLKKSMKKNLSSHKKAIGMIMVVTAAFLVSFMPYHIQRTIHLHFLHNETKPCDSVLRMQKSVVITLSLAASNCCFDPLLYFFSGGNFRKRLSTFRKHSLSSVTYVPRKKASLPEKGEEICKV
Chain of Adenosine receptor A2a (Homo sapiens) (P29274 whole entry): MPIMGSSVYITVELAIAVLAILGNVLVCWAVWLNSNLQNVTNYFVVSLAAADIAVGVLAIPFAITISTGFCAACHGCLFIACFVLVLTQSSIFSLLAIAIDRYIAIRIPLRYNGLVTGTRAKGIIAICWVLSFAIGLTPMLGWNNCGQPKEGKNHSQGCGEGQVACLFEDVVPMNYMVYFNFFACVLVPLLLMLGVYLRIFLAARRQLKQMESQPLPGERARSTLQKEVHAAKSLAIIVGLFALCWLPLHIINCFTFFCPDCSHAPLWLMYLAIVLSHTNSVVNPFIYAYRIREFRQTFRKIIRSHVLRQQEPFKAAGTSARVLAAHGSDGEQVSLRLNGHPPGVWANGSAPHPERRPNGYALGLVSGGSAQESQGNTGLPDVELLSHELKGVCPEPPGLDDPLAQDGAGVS
Chain of 5-hydroxytryptamine receptor 1B (Homo sapiens) (P28222 whole entry): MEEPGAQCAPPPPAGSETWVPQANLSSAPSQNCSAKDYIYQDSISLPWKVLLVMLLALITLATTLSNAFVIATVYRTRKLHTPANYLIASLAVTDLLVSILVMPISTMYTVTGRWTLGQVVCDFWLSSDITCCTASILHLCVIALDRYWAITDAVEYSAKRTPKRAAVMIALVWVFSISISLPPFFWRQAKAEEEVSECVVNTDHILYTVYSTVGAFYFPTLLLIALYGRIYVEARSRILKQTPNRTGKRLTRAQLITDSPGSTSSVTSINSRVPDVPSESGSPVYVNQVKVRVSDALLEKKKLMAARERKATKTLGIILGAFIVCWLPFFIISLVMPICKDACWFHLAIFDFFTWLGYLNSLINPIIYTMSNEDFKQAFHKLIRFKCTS
Chain of Alpha-2B adrenergic receptor (Homo sapiens) (P18089 whole entry): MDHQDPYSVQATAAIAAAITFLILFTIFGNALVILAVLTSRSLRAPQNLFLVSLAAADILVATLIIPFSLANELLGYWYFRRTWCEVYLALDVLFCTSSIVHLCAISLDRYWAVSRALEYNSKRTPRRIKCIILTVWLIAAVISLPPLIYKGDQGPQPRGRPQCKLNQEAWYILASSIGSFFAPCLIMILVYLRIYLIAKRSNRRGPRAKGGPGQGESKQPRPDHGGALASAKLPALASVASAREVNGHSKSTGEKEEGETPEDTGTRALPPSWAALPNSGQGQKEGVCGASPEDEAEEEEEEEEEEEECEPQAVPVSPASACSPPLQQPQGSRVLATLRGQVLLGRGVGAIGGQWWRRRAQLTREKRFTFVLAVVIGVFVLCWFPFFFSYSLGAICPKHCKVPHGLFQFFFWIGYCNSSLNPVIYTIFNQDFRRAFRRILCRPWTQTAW
Chain of Histamine H2 receptor (Homo sapiens) (P25021 whole entry): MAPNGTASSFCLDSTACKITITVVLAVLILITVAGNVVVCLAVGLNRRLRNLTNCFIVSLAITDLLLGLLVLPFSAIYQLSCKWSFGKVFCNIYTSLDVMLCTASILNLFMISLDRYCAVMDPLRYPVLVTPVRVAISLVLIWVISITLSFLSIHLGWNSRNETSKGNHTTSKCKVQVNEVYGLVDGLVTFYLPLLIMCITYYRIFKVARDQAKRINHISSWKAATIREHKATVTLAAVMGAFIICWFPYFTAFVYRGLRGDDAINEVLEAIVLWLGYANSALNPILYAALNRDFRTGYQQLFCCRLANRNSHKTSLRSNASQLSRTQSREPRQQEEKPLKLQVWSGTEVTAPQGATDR
Chain of 5-hydroxytryptamine receptor 1A (Homo sapiens) (P08908 whole entry): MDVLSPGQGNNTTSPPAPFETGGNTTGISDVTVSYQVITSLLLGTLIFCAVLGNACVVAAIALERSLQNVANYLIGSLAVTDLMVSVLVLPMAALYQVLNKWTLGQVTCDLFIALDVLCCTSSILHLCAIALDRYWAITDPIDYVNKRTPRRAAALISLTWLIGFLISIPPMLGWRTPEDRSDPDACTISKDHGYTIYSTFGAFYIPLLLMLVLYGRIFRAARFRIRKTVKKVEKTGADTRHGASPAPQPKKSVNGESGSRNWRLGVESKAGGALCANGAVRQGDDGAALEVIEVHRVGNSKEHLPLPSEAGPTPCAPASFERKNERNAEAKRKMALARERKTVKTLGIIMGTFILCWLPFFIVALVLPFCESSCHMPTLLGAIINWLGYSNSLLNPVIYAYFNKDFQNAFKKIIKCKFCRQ
Chain of Cytochrome P450 2D6 (P10635 whole entry): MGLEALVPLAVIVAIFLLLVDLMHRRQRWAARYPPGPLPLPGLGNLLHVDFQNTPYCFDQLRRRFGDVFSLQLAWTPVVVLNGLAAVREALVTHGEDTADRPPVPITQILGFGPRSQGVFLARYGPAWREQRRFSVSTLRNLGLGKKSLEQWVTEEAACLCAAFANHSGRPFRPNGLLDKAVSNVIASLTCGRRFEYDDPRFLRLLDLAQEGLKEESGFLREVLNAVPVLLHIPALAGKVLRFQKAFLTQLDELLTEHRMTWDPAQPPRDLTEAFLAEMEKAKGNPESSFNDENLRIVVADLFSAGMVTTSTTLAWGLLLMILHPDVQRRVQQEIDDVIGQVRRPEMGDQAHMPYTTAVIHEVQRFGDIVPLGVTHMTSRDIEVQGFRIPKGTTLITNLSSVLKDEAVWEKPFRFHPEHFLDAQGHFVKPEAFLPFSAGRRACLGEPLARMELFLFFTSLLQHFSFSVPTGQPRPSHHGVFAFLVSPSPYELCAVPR
Chain of D(4) dopamine receptor (Homo sapiens) (P21917 whole entry): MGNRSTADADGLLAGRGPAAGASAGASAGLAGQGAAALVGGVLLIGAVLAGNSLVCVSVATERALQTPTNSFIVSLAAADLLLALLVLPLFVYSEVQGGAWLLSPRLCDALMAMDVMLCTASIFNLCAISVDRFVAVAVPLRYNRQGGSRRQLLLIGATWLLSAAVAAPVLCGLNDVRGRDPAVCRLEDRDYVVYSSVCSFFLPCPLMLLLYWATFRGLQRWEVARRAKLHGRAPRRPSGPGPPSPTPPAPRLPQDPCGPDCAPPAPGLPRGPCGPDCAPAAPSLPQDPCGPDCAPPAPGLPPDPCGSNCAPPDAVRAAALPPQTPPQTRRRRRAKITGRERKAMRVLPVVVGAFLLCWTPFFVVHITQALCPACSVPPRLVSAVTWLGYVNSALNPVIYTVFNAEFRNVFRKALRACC

SMILES: CCOC(=O)N1[C@@H]2CC[C@H]1C[C@H](CN1CC[C@@H](N3Cc4ccccc4NC3=O)C1)C2
- Activity [1]: 81%
- Papp [2]: 538 nm/s
- IC50 [3]: > 2 µM
- Kp [4]: 2.42
- inhibition [5]: 6%
- Activity [6]: -0.04%
- Activity [7]: -0.18%
- Activity [8]: -0.5%
- Activity [9]: -2.42%
- Activity [10]: 0.27%
- Activity [11]: 0.7%
- Activity [12]: -0.33%
- Activity [13]: 0.06%
- Activity [14]: -1.26%
- Activity [15]: -0.18%
- inhibition [16]: 2.25%
- inhibition [17]: 6.45%
- inhibition [18]: 27.6%
- inhibition [19]: 11.6%
- inhibition [20]: 4.47%
- inhibition [21]: 5.59%
- inhibition [22]: 5.27%
- inhibition [23]: 0.46%
- inhibition [24]: -1.91%
- inhibition [25]: 20.9%
- inhibition [26]: 15.4%
